Test results reported in the NIST ThermoML archive (doi:10.1021/je050092d).

Test: molar heat capacity at constant pressure
Conditions: 101.33 kPa, Vacuum adiabatic calorimetry

CCCCCCCCCCCCCCCCCC(=O)OCC(COC(=O)CCCCCCCCCCCCCCCCC)OC(=O)CCCCCCCCCCCCCCCCC [glycerol trioctadecanoate]
Conditions	molar heat capacity at constant pressure [J/K/mol]
9.6 K, Crystal	10.7
9.65 K, Crystal	8.023
9.71 K, Crystal	12.48
10.85 K, Crystal	22.29
11.58 K, Crystal	22.29
12.51 K, Crystal	26.74
13.59 K, Crystal	30.31
13.96 K, Crystal	32.98
15.41 K, Crystal	39.23
15.56 K, Crystal	43.68
17.3 K, Crystal	62.4
17.41 K, Crystal	50.81
19.33 K, Crystal	69.54
19.45 K, Crystal	65.97
21.54 K, Crystal	79.34
21.58 K, Crystal	82.02
23.71 K, Crystal	98.06
23.86 K, Crystal	100.74
25.95 K, Crystal	115
26.19 K, Crystal	116.78
28.25 K, Crystal	135.5
28.56 K, Crystal	137.29
30.62 K, Crystal	156.9
30.93 K, Crystal	149.77
30.99 K, Crystal	158.68
33.29 K, Crystal	184.54
35.42 K, Crystal	205.04
37.51 K, Crystal	215.74
39.73 K, Crystal	224.65
41.97 K, Crystal	239.81
44.25 K, Crystal	262.99
46.55 K, Crystal	273.68
48.96 K, Crystal	294.19
51.41 K, Crystal	312.02
53.88 K, Crystal	332.52
56.39 K, Crystal	354.81
58.93 K, Crystal	372.64
61.51 K, Crystal	394.03
64.13 K, Crystal	415.43
66.78 K, Crystal	434.15
69.45 K, Crystal	451.98
72.14 K, Crystal	468.03
74.85 K, Crystal	484.07
77.59 K, Crystal	501.01
80.34 K, Crystal	514.38
83.1 K, Crystal	530.43
85.71 K, Crystal	540.24
85.88 K, Crystal	545.59
88.61 K, Crystal	554.5
88.67 K, Crystal	558.07
91.44 K, Crystal	566.09
91.47 K, Crystal	572.33
94.27 K, Crystal	578.57
97.11 K, Crystal	585.7
99.95 K, Crystal	597.29
102.8 K, Crystal	610.66
105.65 K, Crystal	612.45
108.5 K, Crystal	616.01
111.36 K, Crystal	627.6
114.22 K, Crystal	640.08
117.09 K, Crystal	651.67
119.95 K, Crystal	661.48
122.82 K, Crystal	671.28
125.7 K, Crystal	680.2
128.58 K, Crystal	690.9
131.46 K, Crystal	729.23
134.35 K, Crystal	729.23
137.23 K, Crystal	716.75
140.13 K, Crystal	728.34
143.02 K, Crystal	739.93
145.92 K, Crystal	759.54
148.83 K, Crystal	769.35
151.73 K, Crystal	778.26
154.64 K, Crystal	790.74
157.55 K, Crystal	793.42
160.46 K, Crystal	818.38
163.37 K, Crystal	826.4
166.29 K, Crystal	837.99
169.2 K, Crystal	848.69
172.12 K, Crystal	856.71
175.04 K, Crystal	870.08
177.95 K, Crystal	878.11
178.91 K, Metastable crystal	900.39
180.87 K, Crystal	890.59
181.6 K, Metastable crystal	918.22
183.79 K, Crystal	901.29
184.26 K, Metastable crystal	942.29
186.7 K, Crystal	921.79
186.88 K, Metastable crystal	974.39
189.48 K, Metastable crystal	985.98
189.62 K, Crystal	938.73
192.06 K, Metastable crystal	995.78
192.54 K, Crystal	957.45
194.63 K, Metastable crystal	998.46
195.45 K, Crystal	972.6
197.18 K, Metastable crystal	1005.6
198.37 K, Crystal	976.17
199.71 K, Metastable crystal	1029.7
201.29 K, Crystal	997.57
202.23 K, Metastable crystal	1053.7
204.21 K, Crystal	1008.3
204.74 K, Metastable crystal	1074.2
207.13 K, Crystal	1014.5
207.23 K, Metastable crystal	1089.4
209.71 K, Metastable crystal	1083.1
210.05 K, Crystal	1023.4
212.17 K, Metastable crystal	1091.2
212.96 K, Crystal	1029.7
214.62 K, Metastable crystal	1110.8
215.88 K, Crystal	1037.7
217.06 K, Metastable crystal	1127.7
218.8 K, Crystal	1044.8
219.48 K, Metastable crystal	1147.3
221.72 K, Crystal	1048.4
221.9 K, Metastable crystal	1157.1
224.3 K, Metastable crystal	1170.5
224.64 K, Crystal	1057.3
226.69 K, Metastable crystal	1185.7
227.55 K, Crystal	1067.1
229.06 K, Metastable crystal	1200.8
230.47 K, Crystal	1080.5
231.43 K, Metastable crystal	1217.8
233.39 K, Crystal	1094.7
233.79 K, Metastable crystal	1238.3
236.13 K, Metastable crystal	1256.1
236.3 K, Crystal	1107.2
238.46 K, Metastable crystal	1271.3
239.22 K, Crystal	1121.5
240.79 K, Metastable crystal	1288.2
242.14 K, Crystal	1134
243.1 K, Metastable crystal	1307.8
245.06 K, Crystal	1149.1
245.41 K, Metastable crystal	1327.4
247.71 K, Metastable crystal	1339.9
247.98 K, Crystal	1165.2
250 K, Metastable crystal	1358.6
250.9 K, Crystal	1177.6
252.28 K, Metastable crystal	1376.4
253.82 K, Crystal	1192.8
254.56 K, Metastable crystal	1397.8
256.74 K, Crystal	1208
256.83 K, Metastable crystal	1413
259.09 K, Metastable crystal	1426.4
259.67 K, Crystal	1222.2
261.34 K, Metastable crystal	1444.2
262.6 K, Crystal	1238.3
263.59 K, Metastable crystal	1461.1
265.53 K, Crystal	1254.3
265.83 K, Metastable crystal	1479
268.07 K, Metastable crystal	1495
268.46 K, Crystal	1271.3
270.3 K, Metastable crystal	1515.5
271.39 K, Crystal	1285.5
272.53 K, Metastable crystal	1532.5
274.33 K, Crystal	1301.6
274.75 K, Metastable crystal	1553
276.96 K, Metastable crystal	1577.9
277.27 K, Crystal	1327.4
279.18 K, Metastable crystal	1590.4
280.21 K, Crystal	1339
281.39 K, Metastable crystal	1610
283.16 K, Crystal	1355
283.59 K, Metastable crystal	1629.6
285.8 K, Metastable crystal	1647.5
286.11 K, Crystal	1371.1
288 K, Metastable crystal	1670.6
289.07 K, Crystal	1387.1
290.2 K, Metastable crystal	1689.4
292.03 K, Crystal	1412.1
292.39 K, Metastable crystal	1716.1
294.59 K, Metastable crystal	1733
294.99 K, Crystal	1428.2
296.78 K, Metastable crystal	1763.3
297.32 K, Crystal	1434.4
297.96 K, Crystal	1448.7
298.4 K, Crystal	1436.2
298.97 K, Metastable crystal	1787.4
299.84 K, Crystal	1454.9
300.94 K, Crystal	1466.5
301.16 K, Metastable crystal	1815.9
301.82 K, Crystal	1473.6
303.79 K, Crystal	1492.3
304.05 K, Crystal	1488.8
305.75 K, Crystal	1508.4
306.72 K, Crystal	1514.6
307.7 K, Crystal	1523.5
308.94 K, Crystal	1529.8
309.65 K, Crystal	1536
311.17 K, Crystal	1544
311.6 K, Crystal	1552.1
313.39 K, Crystal	1561
313.55 K, Crystal	1569.9
315.49 K, Crystal	1579.7
315.61 K, Crystal	1576.1
317.43 K, Crystal	1598.4
317.83 K, Crystal	1598.4
319.37 K, Crystal	1627.8
320.05 K, Crystal	1624.3
321.32 K, Crystal	1642.1
322.28 K, Crystal	1645.7
323.27 K, Crystal	1659.9
324.5 K, Crystal	1666.2
325.23 K, Crystal	1682.2
326.72 K, Crystal	1692.9
327.2 K, Crystal	1700.1
328.95 K, Crystal	1713.4
329.17 K, Crystal	1721.4
351.37 K, Liquid	1971.1
353.63 K, Liquid	1975.5
355.89 K, Liquid	1981.8
358.16 K, Liquid	1986.2
360.45 K, Liquid	1992.5
362.74 K, Liquid	1997.8
365.05 K, Liquid	2004.9
367.37 K, Liquid	2007.6
369.71 K, Liquid	2015.6
